{"source": "the supplement of paper PMC10307832", "experiment_in_all_cases": "relative viability (nuclei count vs DMSO), 5 days (fraction); higher = more cells survive", "key": {"[1]": {"compound": "Cc1nc(NC(=O)N2CCC[C@H]2C(N)=O)sc1-c1ccnc(C(C)(C)C(F)(F)F)c1 [Alpelisib] + CCNC(=O)c1noc(-c2cc(C(C)C)c(O)cc2O)c1-c1ccc(CN2CCOCC2)cc1 [Luminespib] (partner 0.01 µM)", "in_short": "(§1)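 Lung cancer cell lines in 1536-well plates were dosed by pin tool the day after seeding, either with one drug alone or with a fixed anchor-drug dose plus five library-drug doses (not always all listed) in √10 steps. After 5 days, cells were fixed and their nuclei stained in one step (final 0.05% Triton X-100, 1% formaldehyde, 1 ug/ml Hoechst), then counted on 4× images. Relative viability is the nuclei count in treated wells divided by that in vehicle wells. Values are medians of duplicate plates.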"}, "[2]": {"compound": "Cc1nc(NC(=O)N2CCC[C@H]2C(N)=O)sc1-c1ccnc(C(C)(C)C(F)(F)F)c1 [Alpelisib] + Cc1nc(Nc2ncc(C(=O)Nc3c(C)cccc3Cl)s2)cc(N2CCN(CCO)CC2)n1 [Dasatinib] (partner 0.075 µM)", "in_short": "as §1"}, "[3]": {"compound": "Cc1nc(NC(=O)N2CCC[C@H]2C(N)=O)sc1-c1ccnc(C(C)(C)C(F)(F)F)c1 [Alpelisib] + CC1(C)CCC(c2ccc(Cl)cc2)=C(CN2CCN(c3ccc(C(=O)NS(=O)(=O)c4ccc(N[C@H](CCN5CCOCC5)CSc5ccccc5)c(S(=O)(=O)C(F)(F)F)c4)cc3)CC2)C1 [Navitoclax] (partner 0.5 µM)", "in_short": "as §1"}, "[4]": {"compound": "CCCS(=O)(=O)Nc1ccc(F)c(C(=O)c2c[nH]c3ncc(-c4ccc(Cl)cc4)cc23)c1F [Vemurafenib] + C[C@@H](Oc1cc(-c2cnn(C3CCNCC3)c2)cnc1N)c1c(Cl)ccc(F)c1Cl [Crizotinib] (partner 1 µM)", "in_short": "as §1"}}}
{"cell line": "NCI-H2228", "values": [{"measurement": "relative viability", "setting": "[1]; first compound 0.04 µM", "value": 0.142}, {"measurement": "relative viability", "setting": "[1]; first compound 0.1265 µM", "value": 0.132}, {"measurement": "relative viability", "setting": "[1]; first compound 0.4 µM", "value": 0.0885}, {"measurement": "relative viability", "setting": "[1]; first compound 1.265 µM", "value": 0.101}, {"measurement": "relative viability", "setting": "[1]; first compound 4 µM", "value": 0.144}, {"measurement": "relative viability", "setting": "[2]; first compound 0.04 µM", "value": 0.519}, {"measurement": "relative viability", "setting": "[2]; first compound 0.1265 µM", "value": 0.478}, {"measurement": "relative viability", "setting": "[2]; first compound 0.4 µM", "value": 0.414}, {"measurement": "relative viability", "setting": "[2]; first compound 1.265 µM", "value": 0.279}, {"measurement": "relative viability", "setting": "[2]; first compound 4 µM", "value": 0.175}, {"measurement": "relative viability", "setting": "[3]; first compound 0.04 µM", "value": 0.977}, {"measurement": "relative viability", "setting": "[3]; first compound 0.1265 µM", "value": 1}, {"measurement": "relative viability", "setting": "[3]; first compound 0.4 µM", "value": 0.552}, {"measurement": "relative viability", "setting": "[3]; first compound 1.265 µM", "value": 0.51}, {"measurement": "relative viability", "setting": "[3]; first compound 4 µM", "value": 0.294}, {"measurement": "relative viability", "setting": "[4]; first compound 0.03162 µM", "value": 0.428}, {"measurement": "relative viability", "setting": "[4]; first compound 0.1 µM", "value": 0.417}, {"measurement": "relative viability", "setting": "[4]; first compound 0.3162 µM", "value": 0.688}, {"measurement": "relative viability", "setting": "[4]; first compound 1 µM", "value": 0.469}]}
{"cell line": "NCI-H2347", "values": [{"measurement": "relative viability", "setting": "[1]; first compound 0.04 µM", "value": 0.476}, {"measurement": "relative viability", "setting": "[1]; first compound 0.1265 µM", "value": 0.632}, {"measurement": "relative viability", "setting": "[1]; first compound 0.4 µM", "value": 0.626}, {"measurement": "relative viability", "setting": "[1]; first compound 1.265 µM", "value": 0.503}, {"measurement": "relative viability", "setting": "[1]; first compound 4 µM", "value": 0.522}, {"measurement": "relative viability", "setting": "[2]; first compound 0.04 µM", "value": 0.298}, {"measurement": "relative viability", "setting": "[2]; first compound 0.1265 µM", "value": 0.3}, {"measurement": "relative viability", "setting": "[2]; first compound 0.4 µM", "value": 0.316}, {"measurement": "relative viability", "setting": "[2]; first compound 1.265 µM", "value": 0.313}, {"measurement": "relative viability", "setting": "[2]; first compound 4 µM", "value": 0.273}, {"measurement": "relative viability", "setting": "[3]; first compound 0.04 µM", "value": 0.919}, {"measurement": "relative viability", "setting": "[3]; first compound 0.1265 µM", "value": 0.745}, {"measurement": "relative viability", "setting": "[3]; first compound 0.4 µM", "value": 0.868}, {"measurement": "relative viability", "setting": "[3]; first compound 1.265 µM", "value": 0.665}, {"measurement": "relative viability", "setting": "[3]; first compound 4 µM", "value": 0.605}, {"measurement": "relative viability", "setting": "[4]; first compound 0.03162 µM", "value": 0.655}, {"measurement": "relative viability", "setting": "[4]; first compound 0.1 µM", "value": 0.657}, {"measurement": "relative viability", "setting": "[4]; first compound 0.3162 µM", "value": 0.397}, {"measurement": "relative viability", "setting": "[4]; first compound 1 µM", "value": 0.69}]}
{"cell line": "NCI-H2405", "values": [{"measurement": "relative viability", "setting": "[1]; first compound 0.04 µM", "value": 0.736}, {"measurement": "relative viability", "setting": "[1]; first compound 0.1265 µM", "value": 0.463}, {"measurement": "relative viability", "setting": "[1]; first compound 0.4 µM", "value": 0.658}, {"measurement": "relative viability", "setting": "[1]; first compound 1.265 µM", "value": 0.486}, {"measurement": "relative viability", "setting": "[1]; first compound 4 µM", "value": 0.418}, {"measurement": "relative viability", "setting": "[2]; first compound 0.04 µM", "value": 0.208}, {"measurement": "relative viability", "setting": "[2]; first compound 0.1265 µM", "value": 0.191}, {"measurement": "relative viability", "setting": "[2]; first compound 0.4 µM", "value": 0.216}, {"measurement": "relative viability", "setting": "[2]; first compound 1.265 µM", "value": 0.19}, {"measurement": "relative viability", "setting": "[2]; first compound 4 µM", "value": 0.197}, {"measurement": "relative viability", "setting": "[3]; first compound 0.04 µM", "value": 1.05}, {"measurement": "relative viability", "setting": "[3]; first compound 0.1265 µM", "value": 0.894}, {"measurement": "relative viability", "setting": "[3]; first compound 0.4 µM", "value": 0.798}, {"measurement": "relative viability", "setting": "[3]; first compound 1.265 µM", "value": 0.596}, {"measurement": "relative viability", "setting": "[3]; first compound 4 µM", "value": 0.789}, {"measurement": "relative viability", "setting": "[4]; first compound 0.03162 µM", "value": 0.865}, {"measurement": "relative viability", "setting": "[4]; first compound 0.1 µM", "value": 0.827}, {"measurement": "relative viability", "setting": "[4]; first compound 1 µM", "value": 0.766}]}
{"cell line": "NCI-H3122", "values": [{"measurement": "relative viability", "setting": "[1]; first compound 0.04 µM", "value": 0.077}, {"measurement": "relative viability", "setting": "[1]; first compound 0.1265 µM", "value": 0.0664}, {"measurement": "relative viability", "setting": "[1]; first compound 0.4 µM", "value": 0.0978}, {"measurement": "relative viability", "setting": "[1]; first compound 1.265 µM", "value": 0.0788}, {"measurement": "relative viability", "setting": "[1]; first compound 4 µM", "value": 0.0851}, {"measurement": "relative viability", "setting": "[2]; first compound 0.04 µM", "value": 0.806}, {"measurement": "relative viability", "setting": "[2]; first compound 0.1265 µM", "value": 0.653}, {"measurement": "relative viability", "setting": "[2]; first compound 0.4 µM", "value": 0.624}, {"measurement": "relative viability", "setting": "[2]; first compound 1.265 µM", "value": 0.487}, {"measurement": "relative viability", "setting": "[2]; first compound 4 µM", "value": 0.295}, {"measurement": "relative viability", "setting": "[3]; first compound 0.04 µM", "value": 1.03}, {"measurement": "relative viability", "setting": "[3]; first compound 0.1265 µM", "value": 0.982}, {"measurement": "relative viability", "setting": "[3]; first compound 0.4 µM", "value": 1.02}, {"measurement": "relative viability", "setting": "[3]; first compound 1.265 µM", "value": 0.906}, {"measurement": "relative viability", "setting": "[3]; first compound 4 µM", "value": 0.81}, {"measurement": "relative viability", "setting": "[4]; first compound 0.03162 µM", "value": 0.266}, {"measurement": "relative viability", "setting": "[4]; first compound 0.1 µM", "value": 0.263}, {"measurement": "relative viability", "setting": "[4]; first compound 0.3162 µM", "value": 0.383}, {"measurement": "relative viability", "setting": "[4]; first compound 1 µM", "value": 0.211}]}
{"cell line": "PC-3 [JPC-3]", "values": [{"measurement": "relative viability", "setting": "[1]; first compound 0.04 µM", "value": 0.731}, {"measurement": "relative viability", "setting": "[1]; first compound 0.1265 µM", "value": 0.567}, {"measurement": "relative viability", "setting": "[1]; first compound 0.4 µM", "value": 0.739}, {"measurement": "relative viability", "setting": "[1]; first compound 1.265 µM", "value": 0.687}, {"measurement": "relative viability", "setting": "[1]; first compound 4 µM", "value": 0.622}, {"measurement": "relative viability", "setting": "[2]; first compound 0.04 µM", "value": 0.948}, {"measurement": "relative viability", "setting": "[2]; first compound 0.1265 µM", "value": 0.928}, {"measurement": "relative viability", "setting": "[2]; first compound 0.4 µM", "value": 0.993}, {"measurement": "relative viability", "setting": "[2]; first compound 1.265 µM", "value": 0.903}, {"measurement": "relative viability", "setting": "[2]; first compound 4 µM", "value": 0.907}, {"measurement": "relative viability", "setting": "[3]; first compound 0.04 µM", "value": 0.828}, {"measurement": "relative viability", "setting": "[3]; first compound 0.1265 µM", "value": 0.836}, {"measurement": "relative viability", "setting": "[3]; first compound 0.4 µM", "value": 0.848}, {"measurement": "relative viability", "setting": "[3]; first compound 1.265 µM", "value": 0.73}, {"measurement": "relative viability", "setting": "[3]; first compound 4 µM", "value": 0.762}, {"measurement": "relative viability", "setting": "[4]; first compound 0.03162 µM", "value": 0.91}, {"measurement": "relative viability", "setting": "[4]; first compound 0.3162 µM", "value": 1.01}, {"measurement": "relative viability", "setting": "[4]; first compound 1 µM", "value": 1.01}]}
